These results are taken from ChEMBL document CHEMBL4138254 (ACS Med Chem Lett, 2017).

≈ marks a conversion by molar mass, not a printed value.

The nature of series [1]: physchem. The note with it: pH 2.2 buffer solution.
Description: Aqueous solubility of the compound in pH 2.2 buffer solution after 24 hrs by LC-UV analysis
Series [2] is described as follows: physchem. To be noted: pH 4.5 buffer solution.
Description: Aqueous solubility of the compound in pH 4.5 buffer solution after 24 hrs by LC-UV analysis
Series [3] can be described thus: in vitro. The note with it: rat, liver microsomes. (Liver microsomes are a subcellular fraction often used to study metabolism.)
Description: Clearance in rat liver microsomes at 1 uM in presence of NADPH by LC-MS/MS analysis relative to hepatic blood flow
Series [4] in a line: in vitro. The note with it: human, Caco-2.
Description: Apparent permeability across apical to basolateral side in human Caco2 cells at 10 uM measured up to 90 mins
In series [5] the target is T1, Autotaxin (Rattus norvegicus, UniProt Q64610). Briefly: Inhibition of recombinant rat ATX using LPC 18:1 as substrate after 2 hrs by rapidfire/MS-based analysis.
The nature of series [6]: physchem. The note with it: pH 6.8 buffer solution.
Description: Aqueous solubility of the compound in pH 6.8 buffer solution after 24 hrs by LC-UV analysis
Series [7] in a line: in vitro. The note with it: human, liver microsomes.
Description: Clearance in human liver microsomes at 1 uM in presence of NADPH by LC-MS/MS analysis relative to hepatic blood flow
Series [8] concerns the target Voltage-gated inwardly rectifying potassium channel KCNH2 (Homo sapiens, UniProt Q12809).
Description: Inhibition of human ERG expressed in HEK293 cells by patch clamp assay
For series [9], the target named is T1, Autotaxin. As to the kind of experiment: Inhibition of ATX in rat whole blood using LPA 17:0 as substrate after 1 hr by LC-MS/MS analysis.

Chain of Voltage-gated inwardly rectifying potassium channel KCNH2 (Q12809 whole entry): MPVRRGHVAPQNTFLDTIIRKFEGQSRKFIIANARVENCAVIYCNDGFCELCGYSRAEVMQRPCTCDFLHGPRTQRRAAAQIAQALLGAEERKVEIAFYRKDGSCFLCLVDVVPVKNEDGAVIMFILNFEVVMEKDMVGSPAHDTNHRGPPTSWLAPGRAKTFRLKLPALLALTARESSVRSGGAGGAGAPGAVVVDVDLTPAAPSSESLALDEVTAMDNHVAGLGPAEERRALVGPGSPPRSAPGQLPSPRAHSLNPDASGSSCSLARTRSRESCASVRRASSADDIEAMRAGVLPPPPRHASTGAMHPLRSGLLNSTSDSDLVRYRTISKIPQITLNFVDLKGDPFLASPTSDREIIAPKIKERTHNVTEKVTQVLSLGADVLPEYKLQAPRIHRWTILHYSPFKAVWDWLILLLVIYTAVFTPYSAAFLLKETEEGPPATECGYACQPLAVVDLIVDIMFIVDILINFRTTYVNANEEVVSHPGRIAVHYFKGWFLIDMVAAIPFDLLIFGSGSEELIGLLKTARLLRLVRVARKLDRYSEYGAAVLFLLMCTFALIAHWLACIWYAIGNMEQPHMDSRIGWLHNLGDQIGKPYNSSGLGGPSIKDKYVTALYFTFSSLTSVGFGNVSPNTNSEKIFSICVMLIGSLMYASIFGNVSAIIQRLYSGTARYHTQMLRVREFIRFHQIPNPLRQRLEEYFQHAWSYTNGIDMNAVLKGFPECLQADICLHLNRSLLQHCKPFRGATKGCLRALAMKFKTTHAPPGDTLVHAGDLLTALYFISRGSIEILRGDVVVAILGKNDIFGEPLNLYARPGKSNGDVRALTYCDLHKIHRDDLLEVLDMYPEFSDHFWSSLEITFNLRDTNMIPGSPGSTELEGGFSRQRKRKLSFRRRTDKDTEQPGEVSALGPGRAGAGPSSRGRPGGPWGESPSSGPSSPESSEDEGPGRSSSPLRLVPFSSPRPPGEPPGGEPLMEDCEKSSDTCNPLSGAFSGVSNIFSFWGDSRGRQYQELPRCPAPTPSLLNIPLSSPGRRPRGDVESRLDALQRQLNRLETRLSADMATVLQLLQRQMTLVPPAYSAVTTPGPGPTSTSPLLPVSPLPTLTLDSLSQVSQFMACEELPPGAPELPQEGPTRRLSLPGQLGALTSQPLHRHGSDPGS

Consider `Cc1cc(COC(=O)N2C[C@@H]3[C@@H](CNC(=O)c4ccc5[nH]c(=O)oc5c4)[C@@H]3C2)no1`, for which the solubility at 24 h is more than 86 µg/mL in “physchem [1]”, more than 93 µg/mL in the series “physchem [2]” and 63 µg/mL (≈ 153 µM) in “physchem [6]”. The hepatic extraction ratio at 1 µM in the series “in vitro [3]” was less than 0.22; in the series “in vitro [7]” it was less than 0.23. The apparent permeability from apical to basolateral (Papp A→B) at 1.5 h, 10 µM in “in vitro [4]” was found to be 2 ×10⁻⁶ cm/s. For the same molecule, the IC50 at Autotaxin [5] was 1670 nM; in series [8], more than 10000 nM.

For the molecule `O=C(CCN1CCN(C(=O)OCc2cc(Cl)cc(Cl)c2)CC1)c1ccc2[nH]c(=O)oc2c1`, the half-maximal inhibitory concentration (IC50) against Autotaxin [9] was determined as 307 nM; in series [8], 480 nM.

As for `CC(C)(C)OC(=O)N1CCCC(COC(=O)N2C[C@@H]3[C@@H](CNC(=O)c4ccc5[nH]c(=O)oc5c4)[C@@H]3C2)C1` (some centres undefined), the figures for the IC50 at Autotaxin [9] and on Autotaxin [5] were 6.9 nM and 49 nM, respectively.

In the case of `N#Cc1cc(COC(=O)N2C[C@@H]3[C@@H](CNC(=O)c4ccc5[nH]c(=O)oc5c4)[C@@H]3C2)cc(OC(F)(F)F)c1`, the IC50 at Autotaxin [9] is 94 nM; on Autotaxin [5], 1.9 nM; in series [8], more than 10000 nM. Also, the solubility at 24 h in “physchem [1]”, in the series “physchem [2]” and in the series “physchem [6]” was less than 1 µg/mL in each case. Further, the hepatic extraction ratio at 1 µM in the series “in vitro [3]” was 0.56; in the series “in vitro [7]”, 0.48. In “in vitro [4]”, the Papp A→B at 1.5 h, 10 µM amounted to 44 ×10⁻⁶ cm/s.

For the molecule `N#Cc1cc(COC(=O)N2C[C@@H]3[C@@H](CNC(=O)N4CCc5c(O)noc5C4)[C@@H]3C2)cc(C(=O)OC(F)(F)F)c1`, the values for the solubility at 24 h in the series “physchem [1]”, in “physchem [2]” and in the series “physchem [6]” were less than 1 µg/mL, less than 1 µg/mL and more than 113 µg/mL, respectively. Moreover, the results for the hepatic extraction ratio at 1 µM in “in vitro [3]” and in “in vitro [7]” were less than 0.22 and less than 0.23, respectively. The IC50 at Autotaxin [5] was 10 nM; in series [8], more than 10000 nM.

As to `O=C(NC[C@@H]1[C@H]2CN(C(=O)OCc3cc(C(F)(F)F)cc(C(F)(F)F)c3)C[C@@H]12)c1ccc2[nH]c(=O)oc2c1`, the IC50 against Autotaxin [9] was 4.5 nM; on Autotaxin [5], 2.3 nM. In addition, the solubility at 24 h in the series “physchem [1]”, in “physchem [2]” and in the series “physchem [6]” was less than 1 µg/mL throughout. For the same molecule, the Papp A→B at 1.5 h, 10 µM in the series “in vitro [4]” turned out to be 108 ×10⁻⁶ cm/s.

`O=C(NC[C@@H]1[C@H]2CN(C(=O)CCc3cc(Cl)cc(Cl)c3)C[C@@H]12)c1ccc2[nH]c(=O)oc2c1`: the 50% inhibitory concentration (IC50) on Autotaxin [9] amounted to 7 nM; at Autotaxin [5], 2.3 nM; in series [8], 8100 nM. The solubility at 24 h in “physchem [1]”, in “physchem [2]” and in “physchem [6]” was less than 1 µg/mL in each case. For the same molecule, the hepatic extraction ratio at 1 µM in “in vitro [3]” is 0.88; in the series “in vitro [7]”, 0.94. For the same molecule, the Papp A→B at 1.5 h, 10 µM in the series “in vitro [4]” came out at 18 ×10⁻⁶ cm/s.

For `N#Cc1cc(COC(=O)N2C[C@@H]3[C@@H](CNC(=O)N4CCc5[nH]nnc5C4)[C@@H]3C2)cc(C(=O)OC(F)(F)F)c1`, the IC50 against Autotaxin [9] was 33 nM; on Autotaxin [5], 1.3 nM; in series [8], more than 10000 nM. Moreover, the solubility at 24 h came to 32 µg/mL (≈ 60 µM) in “physchem [1]”, 26 µg/mL (≈ 48.7 µM) in the series “physchem [2]” and 5 µg/mL (≈ 9.37 µM) in “physchem [6]”. Besides, the hepatic extraction ratio at 1 µM in the series “in vitro [3]” was 0.43; in “in vitro [7]”, 0.44. Besides, the Papp A→B at 1.5 h, 10 µM in “in vitro [4]” was found to be 7 ×10⁻⁶ cm/s.

As for `N#Cc1cc(COC(=O)N2C[C@@H]3[C@@H](CNC(=O)NCCCc4cnn[nH]4)[C@@H]3C2)cc(C(=O)OC(F)(F)F)c1`, the IC50 amounted to 65 nM at Autotaxin [9] and 5.5 nM on Autotaxin [5].

With `O=C(NC[C@@H]1[C@H]2CN(C(=O)NCc3cc(Cl)cc(Cl)c3)C[C@@H]12)c1ccc2[nH]c(=O)oc2c1`, the IC50 at Autotaxin [9] is 77 nM; at Autotaxin [5], 13.9 nM; in series [8] it was more than 10000 nM. The solubility at 24 h in “physchem [1]”, in the series “physchem [2]” and in “physchem [6]” was less than 1 µg/mL in each case. For the same molecule, the hepatic extraction ratio at 1 µM in the series “in vitro [3]” came out at 0.35; in the series “in vitro [7]”, 0.36. The Papp A→B at 1.5 h, 10 µM in “in vitro [4]” was 2 ×10⁻⁶ cm/s.

Take `O=C(NC[C@@H]1[C@H]2CN(C(=O)N3CCc4c(Cl)cc(Cl)cc4C3)C[C@@H]12)c1ccc2[nH]c(=O)oc2c1`: the solubility at 24 h in “physchem [1]”, in “physchem [2]” and in “physchem [6]” was less than 1 µg/mL in each case. Further, the hepatic extraction ratio at 1 µM in the series “in vitro [3]” came out at 0.53. The molecule also yielded a Papp A→B at 1.5 h, 10 µM in the series “in vitro [4]” of 47 ×10⁻⁶ cm/s. The IC50 on Autotaxin [5] came out at 82.6 nM.

In the case of `CC(OC(=O)N1C[C@@H]2[C@@H](CNC(=O)c3ccc4[nH]c(=O)oc4c3)[C@@H]2C1)c1cc(Cl)cc(Cl)c1` (some centres undefined), the IC50 against Autotaxin [9] was determined as 208 nM; on Autotaxin [5], 66.9 nM. In addition, the solubility at 24 h in the series “physchem [1]”, in “physchem [2]” and in “physchem [6]” was less than 1 µg/mL each time. The molecule further displayed a Papp A→B at 1.5 h, 10 µM in the series “in vitro [4]” of 118 ×10⁻⁶ cm/s.

With `Cc1ccc(COC(=O)N2C[C@@H]3[C@@H](CNC(=O)c4ccc5[nH]c(=O)oc5c4)[C@@H]3C2)nc1`, the values for the IC50 (at Autotaxin [9]; on Autotaxin [5]; in series [8]) were 1610 nM, 1530 nM and more than 10000 nM, respectively. For the same molecule, the solubility at 24 h in “physchem [1]” was more than 92 µg/mL; in the series “physchem [2]”, 66 µg/mL (≈ 156 µM); in “physchem [6]”, 56 µg/mL (≈ 133 µM). In addition, the hepatic extraction ratio at 1 µM in the series “in vitro [3]” is less than 0.22; in the series “in vitro [7]” it was 0.25. This molecule also came in with a Papp A→B at 1.5 h, 10 µM in “in vitro [4]” of 1 ×10⁻⁶ cm/s.

Take `O=C(NC[C@@H]1[C@H]2CN(C(=O)/C=C/c3cc(Cl)cc(Cl)c3)C[C@@H]12)c1ccc2[nH]c(=O)oc2c1`: the values for the IC50 (against Autotaxin [9]; on Autotaxin [5]; in [8]) were 1900 nM, 1.7 nM and 4200 nM, respectively. The solubility at 24 h in “physchem [1]”, in “physchem [2]” and in “physchem [6]” was less than 1 µg/mL in each case. The hepatic extraction ratio at 1 µM was more than 0.22 in the series “in vitro [3]” and 0.25 in “in vitro [7]”. The Papp A→B at 1.5 h, 10 µM in “in vitro [4]” came out at 38 ×10⁻⁶ cm/s.

`O=C(NC[C@@H]1[C@H]2CN(C(=O)C3CC3c3cc(Cl)cc(Cl)c3)C[C@@H]12)c1ccc2[nH]c(=O)oc2c1` (some centres undefined): the IC50 against Autotaxin [9] was 2400 nM; on Autotaxin [5], 4.8 nM; in [8], 4700 nM. Moreover, the solubility at 24 h in the series “physchem [1]”, in “physchem [2]” and in the series “physchem [6]” was less than 1 µg/mL in each case. Also, the hepatic extraction ratio at 1 µM in “in vitro [3]” is more than 0.22. In addition, the apical-to-basolateral permeability (Papp A→B) at 1.5 h, 10 µM in “in vitro [4]” turned out to be 64 ×10⁻⁶ cm/s.

For `O=C(NC[C@@H]1[C@H]2CN(C(=O)OCc3cc(Cl)cc(Cl)c3)C[C@@H]12)c1ccc2[nH]c(=O)oc2c1`, the results for the IC50 (at Autotaxin [9]; at Autotaxin [5]; in series [8]) were 56 nM, 3.1 nM and more than 10000 nM, respectively. Further, the solubility at 24 h in “physchem [1]”, in “physchem [2]” and in the series “physchem [6]” was less than 1 µg/mL in each case. In addition, the hepatic extraction ratio at 1 µM in the series “in vitro [3]” was 0.64; in the series “in vitro [7]”, 0.41. The molecule also registered a Papp A→B at 1.5 h, 10 µM in the series “in vitro [4]” of 137 ×10⁻⁶ cm/s.

`N#Cc1cc(COC(=O)N2C[C@@H]3[C@@H](CNC(=O)c4ccc5[nH]nnc5c4)[C@@H]3C2)cc(C(=O)OC(F)(F)F)c1`: the concentration for half-maximal inhibition (IC50) against Autotaxin [9] is 18 nM; on Autotaxin [5], 1.5 nM; in [8] it was more than 10000 nM. Also, the solubility at 24 h in the series “physchem [1]”, in the series “physchem [2]” and in “physchem [6]” was less than 1 µg/mL each time. Moreover, the hepatic extraction ratio at 1 µM in “in vitro [3]” worked out at 0.28; in the series “in vitro [7]”, 0.29. The Papp A→B at 1.5 h, 10 µM in “in vitro [4]” amounted to 8 ×10⁻⁶ cm/s.

By solubility is commonly meant the concentration that dissolves in the medium under given conditions. Read a high solubility as a readily soluble substance. What is called Papp A→B is the apparent permeability from the apical to the basolateral side of a cell layer. A lower Papp A→B goes with slow passage. As usually defined, the IC50 is the concentration that gives 50% inhibition.
